The subject of this assay is HIV-1 (H9IIIB strain). The assay can be described thus: Cell-based HIV infection assay using a reporter (Cell-Based), MT4-GFP cells. Particulars: Human immunodeficiency virus 1, MT4-GFP cells infected with HIV-1 H9IIIB; 50% normal human serum; mean of at least two independent experiments; read-out: Cell-based IP. Here is the method: Cell-Based HIV Infection Assay Using a Reporter (“Cell-Based”):
MT4-GFP cells contain a stably integrated HIV long terminal repeat promoter directing the transcription of green fluorescent protein (GFP). When HIV infects the cell, GFP is produced and the cell becomes green. MT4-GFP cells (250,000 cells/ml) were bulk-infected with HIV-1 (H9IIIB strain) at low multiplicity of infection (MOI) in RPMI media, supplemented with 10% FBS for 24 hours. Cells were then washed once in RPMI plus 10% FBS and resuspended in RPMI plus 50% normal human serum (NHS). Test compounds were serial-diluted in DMSO using an ECHO liquid dispenser. A control well included a combination of three HIV drugs (an inhibitor of HIV protease, integrase strand transfer and a non-nucleoside reverse transcriptase inhibitor; triple drug). The infected MT4-GFP cells were added to a 384-well poly-D-lysine coated black plate with clear bottom in which the diluted test compounds were placed. The cells were seeded in the plate at 8,000 cells per well and the final DMSO concentration was 0.4%. Infected cells were quantified at both 24 and 48 hours post incubation using an Acumen eX3 plate reader. Viral reproductive ratio (R0) was determined using the number of infected cells at 48 hours divided by the number of infected cells at 24 hours. Percent viral growth inhibition was calculated by [1−(R−Rtripledrug)/(RDMSO−Rtripledrug)]*100. Compound potency IP or IC50 was determined with use of a 4-parameter dose response curve analysis.
For the compound `COC(=O)N[C@H](C(=O)N[C@H]1CCC[C@@H]1CC[C@H]1CNCCN1S(=O)(=O)c1ccccc1)C(c1ccc(F)cc1)c1ccc(F)cc1` [Example 350, Methyl ((S)-1,1-bis(4-fluorophenyl)-3-oxo-3-(((1S,2R)-2-(2-((S)-1-(phenylsulfonyl)piperazin-2-yl)ethyl)cyclopentyl)amino)propan-2-yl)carbamate], the IC50 was found to be 12 nM.

Regarding `COc1ccc([C@H](c2ccc(Cl)cc2)[C@H](N)C(=O)Nc2cccc(F)c2CC[C@H]2CNC[C@H](C)N2S(=O)(=O)c2ccc(OC(F)(F)F)cc2)cn1` [Example 188, (βS)-4-chloro-N-(3-fluoro-2-{2-[(2S,6S)-6-methyl-1-{[4-(trifluoromethoxy)phenyl]sulfonyl}piperazin-2-yl]ethyl}phenyl)-β-(6-methoxypyridin-3-yl)-L-phenylalaninamide], the IC50 turned out to be 55 nM.

In the case of `COC(=O)N[C@H](C(=O)Nc1cccc(F)c1CC[C@H]1CNC[C@H](C)N1S(=O)(=O)c1ccccc1Cl)[C@@H](c1ccc(F)cc1)c1cc(F)cc(F)c1` [Example 231, (βS)-N-[2-(2-{(2S,6S)-1-[(2-chlorophenyl)sulfonyl]-6-methylpiperazin-2-yl}ethyl)-3-fluorophenyl]-β-(3,5-difluorophenyl)-4-fluoro-Nα-(methoxycarbonyl)-L-phenylalaninamide], the IC50 is 230 nM.

As to `COC(=O)N[C@H](C(=O)Nc1cccc(F)c1CC[C@H]1CNC[C@H](C)N1S(C)(=O)=O)[C@@H](c1ccc(Cl)cc1)C(C)C` [Example 123, (βR)-4-chloro-N-(3-fluoro-2-{2-[(2S,6S)-6-methyl-1-(methylsulfonyl)piperazin-2-yl]ethyl}phenyl)-Nα-(methoxycarbonyl)-β-(1-methylethyl)-L-phenylalaninamide], the IC50 is 62 nM.

On to `C[C@@H]1CNC[C@H](CCc2c(F)cncc2NC(=O)[C@@H](N)[C@@H](c2ccc(Cl)cc2)C2CCOCC2)N1S(=O)(=O)c1ccc(Cl)cc1` [Example 298, (βR)-4-chloro-N-[4-(2-{(2S,6R)-1-[(4-chlorophenyl)sulfonyl]-6-methylpiperazin-2-yl}ethyl)-5-fluoropyridin-3-yl]-β-(tetrahydro-2H-pyran-4-yl)-L-phenylalaninamide], for which the IC50 stood at 36 nM.

As to `CC(C)[C@H](c1cccc(Cl)c1)[C@H](N)C(=O)Nc1cccc(F)c1CC[C@H]1CNC[C@@H](C)N1S(=O)(=O)c1ccccc1` [Example 206, (βR)-3-chloro-N-(3-fluoro-2-{2-[(2S,6R)-6-methyl-1-(phenylsulfonyl)piperazin-2-yl]ethyl}phenyl)-β-(1-methylethyl)-L-phenylalaninamide], the IC50 turned out to be 480 nM.

In the case of `COC(=O)N[C@H](C(=O)Nc1cccc(F)c1CC[C@H]1CNC[C@H](C)N1S(=O)(=O)c1ccc(OC)cc1)C(c1cccc(F)c1)c1cccc(F)c1` [Example 157, 3-fluoro-N-[3-fluoro-2-(2-{(2S,6S)-1-[(4-methoxyphenyl)sulfonyl]-6-methylpiperazin-2-yl}ethyl)phenyl]-β-(3-fluorophenyl)-Nα-(methoxycarbonyl)-L-phenylalaninamide], the IC50 turned out to be 7.3 nM.

Consider `CS(=O)(=O)N1C(COCc2ccccc2)CNC[C@@H]1CCc1c(F)cccc1NC(=O)[C@@H](N)[C@@H](Cc1ccc(F)cc1)c1ccc(Cl)cc1` (stereo partly drawn) [Example 226, (βS)-N-(2-{2-[(2S)-6-[(benzyloxy)methyl]-1-(methylsulfonyl)piperazin-2-yl]ethyl}-3-fluorophenyl)-4-chloro-β-(4-fluorobenzyl)-L-phenylalaninamide], for which the IC50 is 1100 nM.

As to `COC(=O)N[C@H](C(=O)Nc1cccc(F)c1CC[C@H]1CNC[C@@H](C)N1S(=O)(=O)c1ccccc1)[C@@H](c1ccc(Cl)cc1)c1cccc(F)c1` [Example 184, (βS)-4-chloro-N-(3-fluoro-2-{2-[(2S,6R)-6-methyl-1-(phenylsulfonyl)piperazin-2-yl]ethyl}phenyl)-β-(3-fluorophenyl)-Nα-(methoxycarbonyl)-L-phenylalaninamide], the IC50 was determined as 25 nM.

On to `CC(C)(C)c1ccc(OCC(=O)N2CCNC[C@@H]2CCc2c(F)cncc2NC(=O)C[C@@H](c2ccc(F)cc2)c2cc(F)cc(F)c2)cc1` [Example 349, (3S)-N-[4-(2-{(2S)-1-[(4-tert-butylphenoxy)acetyl]pipe-razin-2-yl}ethyl)-5-fluoropyridin-3-yl]-3-(3,5-difluorophenyl)-3-(4-fluorophenyl)propanamide], for which the IC50 came to 1500 nM.

As to `COC(=O)N[C@H](C(=O)Nc1cccc(F)c1CC[C@H]1CNC[C@@H](C)N1S(=O)(=O)C1CC1)[C@@H](c1ccc(Cl)cc1)c1ccc(OC)nc1` [Example 153, (βS)-4-chloro-N-(2-{2-[(2S,6R)-1-(cyclopropylsulfonyl)-6-methylpiperazin-2-yl]ethyl}-3-fluorophenyl)-Nα-(methoxycarbonyl)-β-(6-methoxypyridin-3-yl)-L-phenylalaninamide], the IC50 came to 28 nM.

As to `N[C@H](C(=O)Nc1cncc(F)c1CC[C@H]1CNCCN1S(=O)(=O)c1ccccc1)[C@@H](c1ccc(Cl)cc1)c1cc(F)cc(F)c1` [Example 46, (βS)-4-chloro-β-(3,5-difluorophenyl)-N-(5-fluoro-4-{2-[(2S)-1-(phenylsulfonyl)piperazin-2-yl]ethyl}pyridin-3-yl)-L-phenylalaninamide], the IC50 came out at 12 nM.

For `O=C(CC1CC1)N[C@H](C(=O)Nc1cncc(F)c1CC[C@H]1CNCCN1S(=O)(=O)C1CC1)[C@@H](c1ccc(F)cc1)c1cc(F)cc(F)c1` [Example 82, (βS)-Nα-(cyclopropylacetyl)-N-(4-{2-[(2S)-1-(cyclopropylsulfonyl)piperazin-2-yl]ethyl}-5-fluoropyridin-3-yl)-3,5-difluoro-β-(4-fluorophenyl)-L-phenylalaninamide], the IC50 was determined as 34 nM.

Turning to `CC1(C)CC([C@H](c2ccc(Cl)cc2)[C@H](N)C(=O)Nc2cccc(F)c2CC[C@H]2CNCCN2S(C)(=O)=O)CCO1` (stereo partly drawn) [Example 78, (βR)-4-chloro-β-(2,2-dimethyltetrahydro-2H-pyran-4-yl)-N-(3-fluoro-2-{2-[(2S)-1-(methylsulfonyl)piperazin-2-yl]ethyl}phenyl)-L-phenylalaninamide], the IC50 was found to be 110 nM.

Regarding `COC(=O)N[C@H](C(=O)Nc1cccc(F)c1CC[C@H]1CNC[C@H](C)N1S(=O)(=O)c1ccccc1)[C@@H](c1ccc(F)c(F)c1)C1CCOCC1` [Example 295, (βR)-3,4-difluoro-N-(3-fluoro-2-{2-[(2S,6S)-6-methyl-1-(phenylsulfonyl)piperazin-2-yl]ethyl}phenyl)-Nα-(methoxycarbonyl)-β-(tetrahydro-2H-pyran-4-yl)-L-phenylalaninamide], the IC50 was determined as 4.2 nM.

For the compound `C[C@H]1CNC[C@H](CCc2c(F)cccc2NC(=O)[C@@H](N)[C@H](c2cccc(F)c2)c2cccc(Cl)c2)N1S(C)(=O)=O` [Example 172, (βR)-3-chloro-N-(3-fluoro-2-{2-[(2S,6S)-6-methyl-1-(methylsulfonyl)piperazin-2-yl]ethyl}phenyl)-β-(3-fluorophenyl)-L-phenylalaninamide], the IC50 stood at 180 nM.

On to `COC(=O)N[C@H](C(=O)Nc1cccc(F)c1CC[C@H]1CNCCN1S(C)(=O)=O)[C@@H](c1ccc(Cl)cc1)C1CCOC(C)(C)C1` (stereo partly drawn) [Example 79, (βR)-4-chloro-β-(2,2-dimethyltetrahydro-2H-pyran-4-yl)-N-(3-fluoro-2-{2-[(2S)-1-(methylsulfonyl)piperazin-2-yl]ethyl}phenyl)-Nα-(methoxycarbonyl)-L-phenylalaninamide], for which the IC50 was 30 nM.

Consider `COC(=O)N[C@H](C(=O)Nc1cccc(F)c1CC[C@H]1CNC[C@H](C)N1S(C)(=O)=O)[C@@H](c1ccc(Cl)cc1)c1cc(F)cc(F)c1` [Example 200, (βS)-4-chloro-β-(3,5-difluorophenyl)-N-(3-fluoro-2-{2-[(2S,6S)-6-methyl-1-(methylsulfonyl)piperazin-2-yl]ethyl}phenyl)-Nα-(methoxycarbonyl)-L-phenylalaninamide], for which the IC50 is 16 nM.

On to `COC(=O)N[C@H](C(=O)Nc1cccc(F)c1CC[C@H]1CNC[C@H](C)N1S(=O)(=O)c1ccccc1)C1(c2ccc(F)c(F)c2)CCOCC1` [Example 297, methyl {(1S)-1-[4-(3,4-difluorophenyl)tetrahydro-2H-pyran-4-yl]-2-[(3-fluoro-2-{2-[(2S,6S)-6-methyl-1-(phenylsulfonyl)piperazin-2-yl]ethyl}phenyl)amino]-2-oxoethyl}carbamate], for which the IC50 was 16 nM.

Consider `C[C@H]1CNC[C@H](CCc2c(F)cccc2NC(=O)[C@@H](N)[C@@H](c2ccc(Cl)cc2)c2cccc(F)c2)N1S(=O)(=O)C1CC1` [Example 167, (βS)-4-chloro-N-(2-{2-[(2S,6S)-1-(cyclopropylsulfonyl)-6-methylpiperazin-2-yl]ethyl}-3-fluorophenyl)-β-(3-fluorophenyl)-L-phenylalaninamide], for which the IC50 was 31 nM.

Turning to `C[C@H]1CNC[C@H](CCc2c(F)cccc2NC(=O)[C@@H](N)[C@@H](c2ccc(F)cc2)C2CCOCC2)N1S(=O)(=O)c1ccccc1` [Example 102, (βR)-4-fluoro-N-(3-fluoro-2-{2-[(2S,6S)-6-methyl-1-(phenylsulfonyl)piperazin-2-yl]ethyl}phenyl)-β-(tetrahydro-2H-pyran-4-yl)-L-phenylalaninamide], the IC50 was determined as 19 nM.

The record behind these values is patent publication US9840478B2 (MERCK SHARP & DOHME CORP., priority 2013, dated 2017).
